Experimental data reported in PubChem BioAssay (NCI).
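In this assay, cells in 96-well plates receive the compound at five concentrations for 48 hours. Endpoints are linearly interpolated between the surrounding concentrations. Abbreviation: GI50, concentration required for 50% inhibition of growth. TGI denotes the concentration required for complete inhibition of growth.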

How the values were obtained:
Experiment in all cases: NCI-60 cell line screen, 48 h
[1] = test system: UACC-257 melanoma
[2] = test system: MALME-3M melanoma
[3] = test system: EKVX NSCLC
[4] = test system: SK-OV-3 ovarian
[5] = test system: NCI-H226 lung
[6] = test system: MDA-MB-435
[7] = test system: UO-31 renal
[8] = test system: HCC-2998 colon
[9] = test system: CCRF-CEM leukemia
[10] = test system: MOLT-4 leukemia
[11] = test system: HL-60(TB) leukemia
[12] = test system: ACHN renal
[13] = test system: OVCAR-4 ovarian
[14] = test system: NCI-H522 lung
[15] = test system: HOP-92 NSCLC
[16] = test system: KM12 colon
[17] = test system: COLO 205 colon
[18] = test system: HOP-62 NSCLC
[19] = test system: PC-3 prostate
[20] = test system: SF-295 CNS
[21] = test system: OVCAR-3 ovarian
[22] = test system: U251 CNS
[23] = test system: RXF 393 renal
[24] = test system: K-562 leukemia
[25] = test system: OVCAR-5 ovarian
[26] = test system: UACC-62 melanoma
[27] = test system: SNB-19 CNS
[28] = test system: HCT-15 colon
[29] = test system: T-47D breast
[30] = test system: DU-145 prostate
[31] = test system: SK-MEL-5 melanoma
[32] = test system: NCI/ADR-RES ovarian
[33] = test system: HCT-116 colon
[34] = test system: A498 renal
[35] = test system: NCI-H460 lung
[36] = test system: NCI-H23 lung
[37] = test system: LOX IMVI melanoma
[38] = test system: CAKI-1 renal
[39] = test system: IGROV1 ovarian
[40] = test system: MDA-MB-231 breast
[41] = test system: HT29 colon
[42] = test system: SN12C renal
[43] = test system: SR leukemia
[44] = test system: SF-539 CNS
[45] = test system: MCF7 breast
[46] = test system: SF-268 CNS
[47] = test system: SNB-75 CNS
[48] = test system: RPMI-8226 leukemia
[49] = test system: SW-620 colon
[50] = test system: M14 melanoma
[51] = test system: A549 NSCLC
[52] = test system: SK-MEL-28 melanoma
[53] = test system: SK-MEL-2 melanoma
[54] = test system: TK-10 renal
[55] = test system: BT-549 breast
[56] = test system: HS 578T breast
[57] = test system: OVCAR-8 ovarian
[58] = test system: 786-0 renal

O=C1/C=C/[C@@H](O)[C@@H]2C[C@@H](O)C[C@H]2/C=C/CCC[C@H](CCOCc2ccccc2)O1
GI50 [1]: 16.1 nM
TGI [1]: 2320 nM
GI50 [2]: 36.5 nM
TGI [2]: 428 nM
GI50 [3]: 141 nM
TGI [3]: > 100000 nM
GI50 [4]: 48.1 nM
TGI [4]: > 100000 nM
GI50 [5]: 18.8 nM
TGI [5]: 251 nM
GI50 [6]: 53.9 nM
TGI [6]: > 100000 nM
GI50 [7]: 70.1 nM
TGI [7]: 26600 nM
GI50 [8]: 110 nM
GI50 [9]: 301 nM
TGI [9]: > 100000 nM
GI50 [10]: 305 nM
TGI [10]: > 43700 nM
GI50 [11]: 282 nM
TGI [11]: 3310 nM
GI50 [12]: 317 nM
TGI [12]: > 100000 nM
GI50 [13]: 64.3 nM
TGI [13]: > 41200 nM
GI50 [14]: 234 nM
TGI [14]: 577 nM
GI50 [15]: 234 nM
TGI [15]: 909 nM
TGI [16]: 31 nM
GI50 [17]: 29.2 nM
TGI [17]: 80.9 nM
GI50 [18]: 73.8 nM
TGI [18]: > 100000 nM
GI50 [19]: 164 nM
TGI [19]: > 100000 nM
GI50 [20]: 51 nM
TGI [20]: > 100000 nM
GI50 [21]: 39 nM
TGI [21]: 187 nM
GI50 [22]: 97.8 nM
TGI [22]: > 100000 nM
GI50 [23]: < 13.9 nM
TGI [23]: 43.6 nM
GI50 [24]: 327 nM
TGI [24]: > 100000 nM
GI50 [25]: 246 nM
TGI [25]: > 100000 nM
GI50 [26]: 37.2 nM
TGI [26]: 12600 nM
GI50 [27]: 138 nM
TGI [27]: > 100000 nM
GI50 [28]: 290 nM
TGI [28]: 12900 nM
GI50 [29]: 192 nM
TGI [29]: 556 nM
GI50 [30]: 412 nM
TGI [30]: > 100000 nM
GI50 [31]: < 13.4 nM
TGI [31]: 22.7 nM
GI50 [32]: 46.9 nM
TGI [32]: 5270 nM
GI50 [33]: 162 nM
TGI [33]: 379 nM
GI50 [34]: 17.8 nM
TGI [34]: 123 nM
GI50 [35]: 380 nM
TGI [35]: > 100000 nM
GI50 [36]: 105 nM
TGI [36]: 714 nM
GI50 [37]: 35.2 nM
TGI [37]: 168 nM
GI50 [38]: 331 nM
TGI [38]: > 100000 nM
GI50 [39]: 335 nM
TGI [39]: > 26300 nM
GI50 [40]: 102 nM
TGI [40]: 267 nM
GI50 [41]: 27.4 nM
TGI [41]: 212 nM
GI50 [42]: 272 nM
TGI [42]: > 100000 nM
GI50 [43]: 142 nM
GI50 [44]: 112 nM
TGI [44]: > 100000 nM
GI50 [45]: 39.9 nM
TGI [45]: 177 nM
GI50 [46]: 37.6 nM
TGI [46]: > 100000 nM
GI50 [47]: < 27.7 nM
TGI [47]: > 95400 nM
GI50 [48]: 297 nM
TGI [48]: 20600 nM
GI50 [49]: 99.4 nM
TGI [49]: 822 nM
GI50 [50]: 40.3 nM
TGI [50]: 13200 nM
GI50 [51]: 66 nM
TGI [51]: > 100000 nM
GI50 [52]: < 17 nM
TGI [52]: 84.9 nM
GI50 [53]: 172 nM
TGI [53]: 649 nM
GI50 [54]: 186 nM
TGI [54]: 658 nM
GI50 [55]: 117 nM
TGI [55]: > 21900 nM
GI50 [56]: < 22.6 nM
TGI [56]: > 100000 nM
GI50 [57]: 52.3 nM
GI50 [58]: 22.3 nM
TGI [58]: 53.7 nM
